Measured values published in the supplement of paper PMC11451515.

Test system: SEM cells
Test: cell viability relative to DMSO control; higher = less cytotoxic
Conditions: 48 h
Procedure, shortened: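 Viability was expressed as a per-plate percentage of DMSO wells, with cell-free wells as background. Leukemia cells (NOMO1 or SEM at 500 cells/well, P12-Ichikawa at 1000 cells/well) were adapted for at least four passages in each medium and seeded in 1536-well plates (5 μl). Library compounds in DMSO were pin-dosed over an 11-point threefold series from 47 μM to 0.79 nM, and CellTiter-Glo One luminescence was read after 48 h at 37°C.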

[1] = HPLM + 10% dialyzed FBS, 0.000781 µM
[2] = HPLM + 10% dialyzed FBS, 0.00234 µM
[3] = HPLM + 10% dialyzed FBS, 0.00702 µM
[4] = HPLM + 10% dialyzed FBS, 0.0211 µM
[5] = HPLM + 10% dialyzed FBS, 0.0632 µM
[6] = HPLM + 10% dialyzed FBS, 0.19 µM
[7] = HPLM + 10% dialyzed FBS, 0.569 µM
[8] = HPLM + 10% dialyzed FBS, 1.71 µM
[9] = HPLM + 10% dialyzed FBS, 5.12 µM
[10] = HPLM + 10% dialyzed FBS, 15.4 µM
[11] = HPLM + 10% dialyzed FBS, 46.1 µM
[12] = RPMI 5 mM glucose + 10% FBS, 0.000781 µM
[13] = RPMI 5 mM glucose + 10% FBS, 0.00234 µM
[14] = RPMI 5 mM glucose + 10% FBS, 0.00702 µM
[15] = RPMI 5 mM glucose + 10% FBS, 0.0211 µM
[16] = RPMI 5 mM glucose + 10% FBS, 0.0632 µM
[17] = RPMI 5 mM glucose + 10% FBS, 0.19 µM
[18] = RPMI 5 mM glucose + 10% FBS, 0.569 µM
[19] = RPMI 5 mM glucose + 10% FBS, 1.71 µM
[20] = RPMI 5 mM glucose + 10% FBS, 5.12 µM
[21] = RPMI 5 mM glucose + 10% FBS, 15.4 µM
[22] = RPMI 5 mM glucose + 10% FBS, 46.1 µM
[23] = RPMI 5 mM glucose + 10% dialyzed FBS, 0.000781 µM
[24] = RPMI 5 mM glucose + 10% dialyzed FBS, 0.00234 µM
[25] = RPMI 5 mM glucose + 10% dialyzed FBS, 0.00702 µM
[26] = RPMI 5 mM glucose + 10% dialyzed FBS, 0.0211 µM
[27] = RPMI 5 mM glucose + 10% dialyzed FBS, 0.0632 µM
[28] = RPMI 5 mM glucose + 10% dialyzed FBS, 0.19 µM
[29] = RPMI 5 mM glucose + 10% dialyzed FBS, 0.569 µM
[30] = RPMI 5 mM glucose + 10% dialyzed FBS, 1.71 µM
[31] = RPMI 5 mM glucose + 10% dialyzed FBS, 5.12 µM
[32] = RPMI 5 mM glucose + 10% dialyzed FBS, 15.4 µM
[33] = RPMI 5 mM glucose + 10% dialyzed FBS, 46.1 µM

| SMILES | cell viability [1] [%] | cell viability [2] [%] | cell viability [3] [%] | cell viability [4] [%] | cell viability [5] [%] | cell viability [6] [%] | cell viability [7] [%] | cell viability [8] [%] | cell viability [9] [%] | cell viability [10] [%] | cell viability [11] [%] | cell viability [12] [%] | cell viability [13] [%] | cell viability [14] [%] | cell viability [15] [%] | cell viability [16] [%] | cell viability [17] [%] | cell viability [18] [%] | cell viability [19] [%] | cell viability [20] [%] | cell viability [21] [%] | cell viability [22] [%] | cell viability [23] [%] | cell viability [24] [%] | cell viability [25] [%] | cell viability [26] [%] | cell viability [27] [%] | cell viability [28] [%] | cell viability [29] [%] | cell viability [30] [%] | cell viability [31] [%] | cell viability [32] [%] | cell viability [33] [%] |
| --- | --- | --- | --- | --- | --- | --- | --- | --- | --- | --- | --- | --- | --- | --- | --- | --- | --- | --- | --- | --- | --- | --- | --- | --- | --- | --- | --- | --- | --- | --- | --- | --- | --- |
| Cc1ccc(-c2ncn(-c3ccc(Nc4nccc(-c5cccc(N6CCOCC6)c5)n4)cc3)n2)cn1 | 75.3 | 93 | 103 | 94.5 | 70.9 | 65.3 | 4.95 | 3.93 | 3.48 | 3.55 | 6.89 | 90.3 | 98.9 | 101 | 104 | 75.1 | 32.3 | 5.46 | 4.61 | 3.18 | 3.66 | 5.27 | 81.6 | 95.5 | 90.7 | 94.4 | 66.9 | 48 | 5.8 | 4.65 | 4.48 | 3.85 | 5.94 |
| CCN1C[C@]2(OC(=O)c3ccccc3NC(C)=O)CC[C@H](OC)[C@@]34[C@@H]2C[C@@H]([C@@H]13)[C@@]1(O)C[C@H](OC)[C@H]2C[C@@H]4[C@]1(O)[C@H]2OC | 85 | 100 | 99 | 105 | 99.6 | 104 | 98.2 | 106 | 92.5 | 85.2 | 88.6 | 79.5 | 96.6 | 101 | 102 | 106 | 99.8 | 103 | 90.9 | 87.9 | 65.6 | 71 | 88.2 | 94.6 | 97.5 | 101 | 81.9 | 88.4 | 99.4 | 93 | 80.6 | 78.4 | 86.5 |
| O=C1N\2CCC3=C([NH]C4=C3C=CC=C4)C2=N/C5=CC=CC=C15 | 96 | 102 | 114 | 118 | 92.8 | 123 | 123 | 115 | 110 | 90.8 | 76.8 | 124 | 113 | 137 | 134 | 109 | 126 | 122 | 147 | 144 | 95 | 83.7 | 123 | 112 | 142 | 135 | 121 | 153 | 147 | 135 | 151 | 101 | 53.6 |
| C#C[C@]1(O)CC[C@H]2[C@@H]3CCc4cc(OC)ccc4[C@H]3CC[C@@]21C | 115 | 108 | 114 | 119 | 122 | 114 | 110 | 107 | 40.3 | 111 | 107 | 119 | 114 | 120 | 127 | 126 | 125 | 120 | 130 | 109 | 145 | 109 | 110 | 111 | 113 | 125 | 120 | 110 | 107 | 134 | 106 | 122 | 97.7 |
| CC(=O)[C@H]1CC[C@H]2[C@@H]3CCC4=CC(=O)CC[C@]4(C)[C@H]3CC[C@]12C | 69 | 83.5 | 89.4 | 92.3 | 82.1 | 102 | 103 | 97 | 88.7 | 88.1 | 92.7 | 98 | 96.9 | 102 | 113 | 113 | 116 | 120 | 106 | 96.7 | 101 | 92.8 | 108 | 92.7 | 103 | 109 | 103 | 119 | 106 | 117 | 90.8 | 81.7 | 90.7 |
| CC(C)c1ccccc1Cc1cc(C(=O)Nc2ccc([S+](=O)([O-])c3ccccc3C(C)(C)C)cc2)c(O)c(O)c1O | 104 | 127 | 116 | 106 | 113 | 101 | 109 | 115 | 68.6 | 94.2 | 94.6 |  |  |  |  |  |  |  |  |  |  |  | 129 | 118 | 120 | 105 | 120 | 112 | 138 | 123 | 32.7 | 69.8 | 92.1 |
| CN(C)CCCNC(=O)c1ccc(-c2cc(O)c3ncccc3c2)cc1 | 107 | 110 | 112 | 103 | 99.7 | 103 | 104 | 91.6 | 92.6 | 81.9 | 40.2 | 107 | 107 | 109 | 103 | 117 | 112 | 120 | 115 | 104 | 78.2 | 27.1 | 95.5 | 103 | 95.2 | 113 | 95.2 | 100 | 103 | 105 | 93.3 | 74.1 | 33 |
| CN(C)c1ccc2cc(C(=O)N[C@@H](CCCNC(=N)CCl)C(=O)NCc3ccccc3)ccc2c1 | 114 | 115 | 101 | 115 | 117 | 112 | 113 | 121 | 110 | 101 | 11.7 | 113 | 112 | 104 | 111 | 112 | 110 | 120 | 90.9 | 101 | 74.1 | 5.29 | 104 | 105 | 99.7 | 104 | 122 | 108 | 115 | 90 | 106 | 84 | 6.08 |
| Cc1[nH]c(/C=C2\C(=O)Nc3ccc([S+](=O)([O-])Cc4c(Cl)cccc4Cl)cc32)c(C)c1C(=O)N1CCC[C@@H]1CN1CCCC1 | 100 | 103 | 102 | 103 | 112 | 96.6 | 94.8 | 76.5 | 6.42 | 45.4 | 9.75 | 116 | 114 | 107 | 116 | 111 | 118 | 109 | 101 | 25.7 | 56.7 | 34 | 84.9 | 99.4 | 85.3 | 94.2 | 86.8 | 93.2 | 92.4 | 72.5 | 42 | 42.3 | 26.7 |
| COc1ccnc(C[S+]([O-])c2nc3cc(OC(F)F)ccc3[nH]2)c1OC (stereo not given) | 110 | 111 | 124 | 123 | 122 | 123 | 133 | 119 | 134 | 128 | 143 |  |  |  |  |  |  |  |  |  |  |  | 111 | 95.9 | 126 | 131 | 125 | 118 | 127 | 144 | 126 | 130 | 137 |
| N\C1=N\C2=C(N=C[N]2COC(CO)CO)C(=O)N1 | 103 | 98.8 | 96.8 | 111 | 97 | 104 | 108 | 108 | 104 | 82.4 | 3.99 | 83.9 | 78.2 | 92.2 | 93.2 | 94.9 | 96.3 | 88.2 | 87.4 | 76 | 64.8 | 2.7 | 94.6 | 98.7 | 105 | 108 | 106 | 108 | 113 | 103 | 115 | 94.7 | 4.17 |
| CCN(C)C(=O)Oc1cccc([C@H](C)N(C)C)c1 | 101 | 108 | 104 | 125 | 110 | 119 | 97.4 | 105 | 99.2 | 101 | 105 | 121 | 114 | 108 | 111 | 122 | 90.1 | 95.9 | 95.9 | 85.7 | 105 | 99.5 | 124 | 100 | 111 | 121 | 110 | 109 | 121 | 101 | 111 | 110 | 95.6 |
| C[C@@H]1C[C@H]2[C@@H]3CC\C4=C\C(=O)\C=C/[C@]4(C)[C@@]3(Cl)[C@@H](O)C[C@]2(C)[C@@]1(OC(=O)C5=CC=CO5)C(=O)CCl | 28.4 | 82.2 | 45.9 | 53.8 | 61 | 59.3 | 53.2 | 47.7 | 36.9 | 45.6 | 52 | 32.3 | 81.8 | 35.8 | 62.1 | 61 | 50.4 | 50.4 | 45.1 | 36.9 | 37.3 | 50.8 | 30.9 | 76.5 | 39 | 52.5 | 64.1 | 47 | 46.8 | 44.7 | 28.8 | 43 | 36.5 |
| NC(=O)Nc1cc(-c2ccc(CN3CCOCC3)cc2)sc1C(N)=O | 103 | 113 | 106 | 108 | 103 | 32.9 | 33.3 | 22.2 | 12.9 | 11.5 | 8.44 | 118 | 120 | 133 | 116 | 111 | 20.2 | 19.9 | 17.1 | 10.8 | 6.3 | 6.6 | 104 | 110 | 109 | 108 | 91.2 | 22.9 | 21.6 | 14.5 | 7.42 | 7.32 | 5.7 |
